Measured values from article PMC7154662, “Structural Insight into IAPP‐Derived Amyloid Inhibitors and Their Mechanism of Action” (Angewandte Chemie (International Ed. in English), 2020).
“Also recorded” adds a separate entry of the source.

Assays:
[1] = Morphology by TEM, DIC and fluorescence microscopy; type: physicochemical; conditions: DIC experiments; 10 mM sodium phosphate buffer, pH 7.4 (1% v/v HFIP)
Method: Figure 1 R3‐GI self‐assembly. […] On the right, the binding curve is shown. The estimated app. […] Data are means (±SEM) from three binding curves. […] Scale bar: 10 μm.
(§1) Peptide synthesis and sample preparation for NMR
(§2) The other peptide samples were
(§3) Sample preparation for DLS, TEM and DIC
(§4) (containing 1% v/v HFIP) without filtration. The Fluor-647-Aβ40 was ordered from AnaSpec, […]
(§5) for 20 min before capturing images. […]
(§6) microscope, as described elsewhere. An oil immersion objective (Apo-TIRF 100x Oil/NA 1.49, Nikon) was used for all measurements.
(§7) Picoquant) was used for excitation. Fluorescence emission was detected using an avalanche […]
(§8) measurements were carried out at 22 °C.
(§9) (measured before the back aperture of the objective). […]
(§10) temperature within 2-5 min following solution preparation. The determined app. Kd is means (±SD) from three binding curves.
Cross-linking studies were performed as previously described. […]
(§11) Effects of peptides on amyloidogenesis of Aβ40 were determined using a previously established ThT binding assay as described. […] ThT binding was determined immediately by measuring fluorescence emission at 486 nm following excitation at 450 nm using a 2030 Multilabel Reader VictorX3 (PerkinElmer Life Sciences). […]
(§12) PA 19440, USA; Formvar/Carbon 300 mesh copper coated). Samples were measured immediately employing an EM 10 CR (Zeiss, Germany). […]

Aβ40 [2] = assay: Solubility of 15N-labeled Aβ40 in presence of ISM (NMR titration); type: binding; conditions: for Aβ40 signal at tenfold excess of ISM, in words: molar ratio Aβ/ISM 1:10; for Effect on Aβ40 solubility upon titration, in words: titration with / incubation of monomeric Aβ40
Method: (§13) Figure 5 ISM–substrate interactions. A) ^15N‐filtered 1D‐^1H spectra of a 20 μM sample of ^15N‐labeled Aβ40 in the absence (black) and presence of the ISM inhibitor K3‐L3‐K3‐GI (top), and the non‐inhibitor G3‐GI (bottom). […] At this molar excess, the intensities of Aβ40 are reduced only to ca. 28 % when G3‐GI is titrated to Aβ40. […] At a molar ratio of 1:10 for Aβ/inhibitor, the spectrum is dominated by the resonances of the inhibitor. […] B) 2D ^1H‐^15N HSQCs of Aβ40 incubated with K3‐L3‐K3‐GI (red) at a molar ratio of 1:1. The Aβ40 reference spectrum is represented in black. […] C) Comparison of the DIC and fluorescence microscopy images of R3‐GI/Aβ40, K3‐L3‐K3‐GI/Aβ40, and G3‐GI/Aβ40. […] Scale: 10 μm.

Aβ40 [3] = assay: Co-localization of Fluos-labeled ISMs with Fluor-647-Aβ40 (DIC and fluorescence microscopy); type: binding; conditions: incubated at room temperature for 20 min
Method: as §13, §1, §2, §3
(containing 1% v/v HFIP) without filtration. The Fluor-647-Aβ40 was ordered from AnaSpec,
for 20 min before capturing images.
microscope, as described elsewhere. An oil immersion objective (Apo-TIRF 100x Oil/NA
1.49, Nikon) was used for all measurements.
Picoquant) was used for excitation. Fluorescence emission was detected using an avalanche
as §8
(measured before the back aperture of the objective).

Aβ40/42 = conditions: ref 1b; cited from earlier work
Description: The design of the ISMs was based on the finding that amyloids are generally composed of a β‐sheet‐turn‐β‐sheet structural motif and that IAPP uses the same two binding regions for both its amyloid self‐ and its cross‐amyloid hetero‐assem ... || Our studies focused on the two ISMs R3‐GI and K3‐L3‐K3‐GI for the following reasons (Figure 1 A and Table S1 in the Supporting Information): 1) R3‐GI was used in solution‐state NMR studies as the intrinsically low solubility of all ISMs with hydrophobic linkers makes them unsuitable for solution‐state NMR spectroscopy. […] Multivalent interactions between an inhibitor molecule and an amyloid fibril have been exploited by Wall and co‐workers,27 who designed an α‐helical peptide with a lysine basic side chain to interact with negatively charged residues exposed on the surface of amyloid structures. These inhibitors are used as imaging reagents and stabilize a fibrillar fold. In contrast, ISMs prevent amyloid form ...

[4] = Solution-state NMR (NOESY, chemical shifts) structural characterization; type: physicochemical
Method: as §1, §2, §3, §4, §5, §6, §7, §8, §9
quantify the signal-to-noise ratio. For the R3-GI peptide, the signal to noise ratio of the isolated Thr-CH3 peak amounts to […]. For the reference peptide, the signal to noise of the single Thr-CH3 peak corresponds to 216.82. The ratio of concentrations amounts to a factor of 20.83. Otherwise, 1D-1H spectra were recorded under identical conditions. […]
images in which we determined the partitioning coefficient of the R3-GI solution (Fig. S3). […]
correlation time which in turn would result in higher NOESY cross peak intensities. A) H- H NOESY spectrum recorded for a 500 μM solution of R3-GI, using a salt concentration of 2.5 mM (black) and 50 mM NaCl (red), respectively. […]
recorded for a 500 μM solution of R3-GI, setting the pH to 5.98 (blue), 6.87 (green), 7.06 (red) and 7.23 (black). […]

Aβ40 [5] = assay: TEM of ISM-induced Aβ40 aggregates; type: biochemical; conditions: equimolar amount of K3-L3-K3-GI
Method: Figure 6 Structural characterization of K3‐L3‐K3‐GI‐induced Aβ40 aggregates. A, B) TEM images of Aβ40 in the absence (A) and presence (B) of an equimolar amount of K3‐L3‐K3‐GI. Scale bar: 200 nm. C) 2D ^13C,^15N MAS solid‐state NMR correlation spectra obtained for K3‐L3‐K3‐GI‐induced Aβ40 aggregates (red). To prepare the sample, a 20 μM solution of monomeric Aβ40 was incubated with a 1.23‐fold molar excess of K3‐L3‐K3‐GI. For reference, the correlation spectrum obtained for Aβ40 fibrils is shown in black. To prepare the Aβ40 fibril sample, monomeric Aβ40 was grown using 5 % seeds, following the protocol described by Lopez and co‐workers.17 (D) Cα–Cβ chemical shift differences for K3‐L3‐K3‐GI‐induced Aβ40 aggregates (top). TALOS+^[19]‐predicted secondary structure propensity (bottom). […]
temperature within 2-5 min following solution preparation. The determined app. […]
as §11, §12

Aβ40 [6] = assay: Effects of ISM on Aβ40 amyloid self-assembly (ThT binding assay); type: biochemical; conditions: Aβ40/ISM 1/1, 50 mM sodium phosphate buffer, pH 7.4, 100 mM NaCl, 1% HFIP, room temperature, 3 assays
Method: as §10
Cross-linking studies were performed as previously described. Briefly, R3-GI was dissolved at 500 μM in aqueous 10 mM sodium phosphate buffer, pH 7.4, and incubated for the indicated time points at room temperature, cross-linked with aqueous glutaraldehyde (25%) (Sigma-Aldrich), precipitated with aqueous trichloroacetic acid (TCA) (10%) and pellets were dissolved in NuPAGE sample buffer and subjected to NuPAGE electrophoresis in 4-12% Bis-Tris gels with MES running buffer. Equal amounts of peptide were loaded in all lanes. Coomassie blue staining was performed following standard protocols.
Dynamic light scattering experiments […]
as §11
(A) Amyloid self-assembly of Aβ40 alone and its mixtures (1:1) with K3-L3-K3-GI or L3-GI (control) determined using the ThT binding assay (means (±SEM), 3 assays). […]
7 days aged solutions from (A) were added to PC12 cells; cell damage was assessed by the MTT reduction assay (means (±SEM), 3 assays (n=3 each)). […]

[7] = Solubility of ISMs (qualitative); type: physicochemical
[8] = 20 μM 15N-labeled Aβ40, molar ratio 1:1

| Substance | Macroscopic particles in solution (DIC) [1] | Aβ40 solubility at 1:1, in words (Aβ40 [2]; [8]) | Aβ40 resonance intensity remaining at tenfold excess of ISM (Aβ40 [2]; 20 μM 15N-labeled Aβ40, molar ratio Aβ/ISM 1:10) | Aβ40 signal at tenfold excess of ISM, in words (Aβ40 [2]) | Effect on Aβ40 solubility upon titration, in words (Aβ40 [2]) | Co-localization with Aβ40 (Aβ40 [3]) | Aβ amyloid self-assembly inhibition, in words (Aβ40/42) | Long-range NOE contacts (loop formation) [4] | Morphology of ISM-induced Aβ40 aggregates (Aβ40 [5]) | Aβ40 remaining in solution (Aβ40 [2]; [8]) [%] | Aβ40 chemical shift changes upon ISM addition (Aβ40 [2]; 2D 1H-15N HSQC, molar ratio 1:1) | Function of K3-L3-K3-GI as analogue of L3-GI (Figure S1) (Aβ40 [6]) | Solubility, in words [7] |
| --- | --- | --- | --- | --- | --- | --- | --- | --- | --- | --- | --- | --- | --- |
| ATQRLANFLVH-GGG-NF(N-Me)GA(N-Me)ILS [G3-GI] | macroscopic particles are observed | almost unaffected | ca. 28% | high intensities were observed | no effects on Aβ40 solubility were observed | no co‐localization with Aβ40 | non‐inhibitor | only weak long‐range NOEs if any | – | – | – | – | – |
| KKK-ATQRLANFLVH-LLL-NF(N-Me)GA(N-Me)ILS-KKK [K3-L3-K3-GI] | – | – | – | almost empty; also recorded: disappear quantitatively | precipitated quickly out of solution | co‐localize with Aβ40 | – | – | mainly amorphous aggregates | 9 | not affected; also recorded: No Aβ40 chemical shift changes were observed | functional analogue | reasonably soluble |
